Legend:
[1] = target: WRN helicase (core helicase motif aa N517-P1238) (Homo sapiens (Human), UniProt Q14191); assay: WRN ATPase assay (ADP-Glo), DNA dependent ATP hydrolysis; format: biochemical; details: 3 hours pre-incubation, 300 micromolar ATP, FLAP26 ssDNA; geometric means of at least 2 determinations
Method in brief: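 Uses the WRN core helicase (aa N517-P1238) with single-strand 45-mer FLAP26 DNA in Tris pH 7.5, MgCl2, NaCl, BSA and pluronic buffer. Compound was pre-incubated 3 h with enzyme and ATP; reaction then run with 10 nM WRN, 0.2 nM FLAP26 and 300 µM ATP for 30 min at room temperature. ADP quantified by ADP-Glo luminescence; IC50 from duplicate 4-parameter fits, geometric mean of ≥2 runs.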

DLD1-WRN-KO cells = assay: Proliferation assay DLD1-WRN-KO (CellTiterGlo, 96 hours), off-target effects; format: cell-based; details: Homo sapiens
Method in brief: (§1)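 Cells in RPMI-1640/10% FCS were seeded overnight (SW48 2'000, DLD1-WRN-KO 1'500 cells/well), then exposed to eight 3-fold compound dilutions at 0.1% DMSO. ATP luminescence relative to a day-0 plate gives % growth (0% stasis, −100% complete kill). GI50 is the geometric mean of ≥2 independent replicates.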

SW48 cells = assay: Proliferation assay SW48 (CellTiterGlo, 96 hours); format: cell-based; details: Homo sapiens
Method in brief: as §1

Chain of WRN helicase (core helicase motif aa N517-P1238) (Q14191 517-1238): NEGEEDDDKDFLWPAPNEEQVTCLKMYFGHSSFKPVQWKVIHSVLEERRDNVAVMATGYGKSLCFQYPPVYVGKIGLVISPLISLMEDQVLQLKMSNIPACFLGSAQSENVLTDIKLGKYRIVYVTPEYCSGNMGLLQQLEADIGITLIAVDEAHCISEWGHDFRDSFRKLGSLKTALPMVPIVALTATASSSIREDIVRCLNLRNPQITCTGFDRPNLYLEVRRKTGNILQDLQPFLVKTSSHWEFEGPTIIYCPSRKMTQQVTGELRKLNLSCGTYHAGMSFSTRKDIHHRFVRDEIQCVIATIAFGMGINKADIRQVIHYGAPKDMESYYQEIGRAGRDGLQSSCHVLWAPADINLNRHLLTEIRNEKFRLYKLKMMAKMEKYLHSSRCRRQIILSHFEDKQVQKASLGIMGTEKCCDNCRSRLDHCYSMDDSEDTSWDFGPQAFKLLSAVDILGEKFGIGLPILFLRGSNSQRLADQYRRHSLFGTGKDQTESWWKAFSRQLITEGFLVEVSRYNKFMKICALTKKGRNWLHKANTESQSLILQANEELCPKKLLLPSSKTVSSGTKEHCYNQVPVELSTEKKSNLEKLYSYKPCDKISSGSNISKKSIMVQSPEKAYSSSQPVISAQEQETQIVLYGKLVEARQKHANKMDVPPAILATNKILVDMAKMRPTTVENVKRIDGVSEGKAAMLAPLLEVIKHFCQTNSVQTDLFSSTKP

| SMILES | IC50 [1] [nM] | GI50 (DLD1-WRN-KO cells) [nM] | GI50 (SW48 cells) [nM] |
| --- | --- | --- | --- |
| CC(=O)N1CCN(c2c3n(c4nc(-c5ccccc5)nn4c2=O)C(C(=O)Nc2ccc(C(F)(F)F)cc2)CC3)CC1 (racemic) [Example 22, rac-6-(4-acetylpiperazin-1-yl)-5-oxo-2-phenyl-N-(4-(trifluoromethyl)phenyl)-5,7,8,9-tetrahydropyrrolo[1,2-c][1,2,4]triazolo[1,5-a]pyrimidine-9-carboxamide] | 700 | > 10000 | 6000 |
| O=C(Nc1ccc(C(F)(F)F)cc1)[C@H]1CCc2c(N3CCN(C(=O)c4ncccc4O)CC3)c(=O)n3nc(C4=CCOCC4)nc3n21 [Example 23A, (R)-2-(3,6-dihydro-2H-pyran-4-yl)-6-(4-(3-hydroxypicolinoyl)piperazin-1-yl)-5-oxo-N-(4-(trifluoromethyl)phenyl)-5,7,8,9-tetrahydropyrrolo[1,2-c][1,2,4]triazolo[1,5-a]pyrimidine-9-carboxamide] | 50 | > 10000 | 200 |
| C[C@@H]1C[C@H](C(=O)Nc2ccc(C(F)(F)F)cc2Cl)n2c1c(N1CCN(C(=O)c3c(O)ccc4nccn34)CC1)c(=O)n1nc(C3=CCOCC3)nc21 [Example 9, (7R,9R)—N-(2-chloro-4-(trifluoromethyl)phenyl)-2-(3,6-dihydro-2H-pyran-4-yl)-6-(4-(6-hydroxyimidazo[1,2-a]pyridine-5-carbonyl)piperazin-1-yl)-7-methyl-5-oxo-5,7,8,9-tetrahydropyrrolo[1,2-c][1,2,4]triazolo[1,5-a]pyrimidine-9-carboxamide] | 50 | > 10000 | 60 |
| C[C@@H]1C[C@H](C(=O)Nc2ccc(C(F)(F)F)cc2Cl)n2c1c(N1CCN(C(=O)c3ncncc3O)CC1)c(=O)n1nc(C3=CCOCC3)nc21 [Example 13, (7R,9R)—N-(2-chloro-4-(trifluoromethyl)phenyl)-2-(3,6-dihydro-2H-pyran-4-yl)-6-(4-(5-hydroxypyrimidine-4-carbonyl)piperazin-1-yl)-7-methyl-5-oxo-5,7,8,9-tetrahydropyrrolo[1,2-c][1,2,4]triazolo[1,5-a]pyrimidine-9-carboxamide] | 50 | > 10000 | 40 |

Reference: US20240245694A1, “Tricyclic Compounds and their Uses” (Novartis AG, priority 2022, published 2024)
